Results as given in ChEMBL document CHEMBL1201862, “PubChem BioAssay data set” (2004).
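Cultured in 96-well plates, cells were exposed to test compound for 48 hours across five concentrations. Here, GI50 denotes the concentration required for 50% inhibition of growth.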 Activity calls are given as the source filed them. No stated cut-off is given here; in the data, active = GI50 up to about 1.1 µM and inactive = higher.

Legend:
Assay in all cases: NCI tumour cell line growth inhibition, 48 h
[1] = test system: HCT-15
[2] = test system: K562
[3] = test system: UO-31
[4] = test system: MDA-MB-435
[5] = test system: SNB-75
[6] = test system: HCC 2998
[7] = test system: NCI/ADR-RES
[8] = test system: BT-549
[9] = test system: NCI-H226
[10] = test system: COLO 205
[11] = test system: EKVX
[12] = test system: TK-10
[13] = test system: T47D
[14] = test system: M14
[15] = test system: IGROV-1
[16] = test system: SF-295
[17] = test system: LOX IMVI
[18] = test system: CAKI-1
[19] = test system: SR

SMILES | GI50 [1] | GI50 [2] | GI50 [3] | GI50 [4] | GI50 [5] | GI50 [6] | GI50 [7] | GI50 [8] | GI50 [9] | GI50 [10] | GI50 [11] | GI50 [12] | GI50 [13] | GI50 [14] | GI50 [15] | GI50 [16] | GI50 [17] | GI50 [18] | GI50 [19]
CCOC(=O)c1nnsc1NC(=O)Nc1ccc(Cl)cc1 | 61.9 µM | > 100 µM (inactive) | 31.1 µM (inactive) | > 100 µM (inactive) | 21.1 µM (inactive) | 38.5 µM (inactive) | 25.1 µM (inactive) | > 100 µM (inactive) | 36.6 µM (inactive) | 67.3 µM (inactive) | 42 µM (inactive) | > 100 µM (inactive) | 34.3 µM (inactive) | 77.1 µM (inactive) | 31 µM (inactive) | – | – | – | –
Cc1cc(S(=O)(=O)Nc2nc(N)nc(N3N=CCC3C)n2)c(SCC(=O)O)cc1Cl (configuration not stated) | > 10 µM | > 10 µM (inactive) | 0.001 µM (active) | > 10 µM (inactive) | > 10 µM (inactive) | > 10 µM (inactive) | > 10 µM (inactive) | > 10 µM (inactive) | > 10 µM (inactive) | > 10 µM (inactive) | > 10 µM (inactive) | > 10 µM (inactive) | > 10 µM (inactive) | > 10 µM (inactive) | > 10 µM (inactive) | > 10 µM (inactive) | > 10 µM (inactive) | > 10 µM (inactive) | –
OC1(c2ccccc2)CC2CCC(C1)N2CCCC1(c2ccc(F)cc2)OCCO1 (configuration not stated) | > 100 µM | > 100 µM (inactive) | 54.3 µM (inactive) | > 100 µM (inactive) | > 100 µM (inactive) | – | 15.6 µM (inactive) | > 100 µM (inactive) | – | 69.8 µM (inactive) | > 100 µM (inactive) | > 100 µM (inactive) | > 100 µM (inactive) | 21 µM (inactive) | > 100 µM (inactive) | 3.26 µM (inactive) | > 100 µM (inactive) | > 100 µM (inactive) | 27.3 µM (inactive)
C=CC[C@H](N=C(SC)SC)C(=O)N1C(=O)N(C)[C@@H](C)[C@H]1c1ccccc1 | 49.8 µM | 29.6 µM (inactive) | 47.9 µM (inactive) | 33.8 µM (inactive) | 36.4 µM (inactive) | 27.9 µM (inactive) | 29.5 µM (inactive) | 34.6 µM (inactive) | 31.6 µM (inactive) | 28 µM (inactive) | 31.3 µM (inactive) | 44.2 µM (inactive) | 40.5 µM (inactive) | 34.9 µM (inactive) | – | 40.3 µM (inactive) | 72.8 µM (inactive) | 25.1 µM (inactive) | –
CCOC(=O)Cc1ccc(Nc2nc3cc(C(F)(F)F)ccc3nc2C(=O)OCC)cc1 | > 100 µM | – | > 100 µM (inactive) | > 100 µM (inactive) | 20.7 µM (inactive) | – | > 100 µM (inactive) | 77.1 µM (inactive) | 17.6 µM (inactive) | > 100 µM (inactive) | > 100 µM (inactive) | 49.3 µM (inactive) | > 100 µM (inactive) | > 100 µM (inactive) | > 100 µM (inactive) | 63.2 µM (inactive) | > 100 µM (inactive) | 30.1 µM (inactive) | > 100 µM (inactive)
Nc1nc(O)nc2c1ncn2C1OC(CO)C(O)C1O (configuration not stated) | 28.4 µM | 44.2 µM (inactive) | 49.9 µM (inactive) | 57.5 µM (inactive) | 6.18 µM (inactive) | 25.7 µM (inactive) | 22.6 µM (inactive) | > 100 µM (inactive) | 69.3 µM (inactive) | > 100 µM (inactive) | > 100 µM (inactive) | 38.5 µM (inactive) | 25.1 µM (inactive) | 39.9 µM (inactive) | > 100 µM (inactive) | > 100 µM (inactive) | 38.8 µM (inactive) | 54 µM (inactive) | –
